Measured values: EPA's ToxValDB 9.5 (doi:10.2903/j.efsa.2010.1931)
≈ marks a conversion by molar mass, not a printed value.

What was measured:
[1] = system: Colinus virginianus; settings: for LD50: acute, oral, mortality
[2] = system: Rattus norvegicus
[3] = system: Daphnia magna; settings: chronic/long-term; duration: 21 days; reproduction
[4] = system: Apis mellifera; settings: acute; duration: 48 hours; oral; unspecified; mortality
[5] = system: Oryctolagus sp.; settings: chronic; body weight
[6] = system: Oncorhynchus mykiss; settings: mortality
[7] = system: Tagia sp.
[8] = system: Anas platyrhynchos; settings: acute; oral; unspecified; mortality
[9] = system: Typhlodromus pyri; assay: LR50; higher = less toxic; settings: acute; duration: 7 days; mortality

Structure (SMILES): COCCOc1cccc2c1c(=O)c(C(=O)O)nn2-c1ccc(Cl)cc1
- LD50 ([1]; diet): > 642 mg/kg-day
- LD50 [1]: > 1440 mg/kg-day
- NOEL ([1]; reproduction developmental): 119 mg/kg-day
- LD50 ([2]; acute, oral, mortality): > 5000 mg/kg-day
- NOAEL ([2]; chronic, duration: 2 years, mortality): 9.1 mg/kg-day
- NOAEL ([2]; subchronic, duration: 90 days, oral, histopathology: nonneoplastic): 16.5 mg/kg-day
- NOEC [3]: 7.03 mg/L
- LD50 [4]: > 100 µg/piece
- NOEL [5]: 125 mg/kg-day
- LC50 ([6]; acute, duration: 96 hours): 570 µg/mL (≈ 1520 µM)
- NOEC ([6]; chronic/long-term, duration: 28 days): 100 mg/L
- LC50 ([7]; acute, duration: 14 days, mortality): 20 mg/kg
- NOEC ([7]; chronic/long-term, reproduction): 20 mg/kg
- LD50 [8]: > 1440 mg/kg-day
- LR50 [9]: 1460 g/ha
